The numbers were not newly measured in patent publication US8198478B2 (Ajinomoto Co., Inc., priority 2007, dated 2012), which cites them from elsewhere.

For the series the following is noted: literature value (Kagaku Binran, 1993).

Take `N[C@@H](CCC(=O)O)C(=O)O` [glutamic acid]: the “hydrogen ion dissociation constant pk1” value is on record as 2.19, the “hydrogen ion dissociation constant pk2” value is recorded as 4.25 and the “hydrogen ion dissociation constant pk3” value is 9.67.
